{
  "source": "patent US6420353B1",
  "about": "“Use of 7 α-substituted steroid to treat neuropsychiatric, immune or endocrine disorders” (BTG International Limited, priority 1996, dated 2002)",
  "key": {"Cyp7b [1]": {"molecular_target": "T1, Cyp7b (Mus musculus, UniProt Q60991)", "T1 sequence (Q60991 1-507)": "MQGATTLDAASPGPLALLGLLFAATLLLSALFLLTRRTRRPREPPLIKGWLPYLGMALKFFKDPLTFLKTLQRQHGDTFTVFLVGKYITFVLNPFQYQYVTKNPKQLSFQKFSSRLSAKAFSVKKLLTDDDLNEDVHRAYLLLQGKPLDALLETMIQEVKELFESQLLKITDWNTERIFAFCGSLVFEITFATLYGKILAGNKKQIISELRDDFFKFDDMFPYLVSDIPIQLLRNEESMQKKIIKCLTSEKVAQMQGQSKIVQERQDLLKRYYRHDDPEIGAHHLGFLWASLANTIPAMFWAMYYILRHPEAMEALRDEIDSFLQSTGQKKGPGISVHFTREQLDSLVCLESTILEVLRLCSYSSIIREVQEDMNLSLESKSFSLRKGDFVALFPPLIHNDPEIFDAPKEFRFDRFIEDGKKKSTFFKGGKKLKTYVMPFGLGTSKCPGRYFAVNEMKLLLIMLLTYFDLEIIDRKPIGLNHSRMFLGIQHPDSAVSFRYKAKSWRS", "test": "Catalytic activity of Cyp7b expressed in mammalian cell lines (NADPH-dependent conversion, TLC)", "source_text": "To examine the catalytic activity of the enzyme Cyp7b CDNAs were expressed in mammalian cell lines."}, "Cyp7b [2]": {"molecular_target": "T1, Cyp7b"}, "Cyp7b [3]": {"molecular_target": "T1, Cyp7b", "remark": "listed apart in the source"}, "GR": {"molecular_target": "T2, GR (Homo sapiens, UniProt P04150)", "T2 construct": "expressed in transfected cells; host or cells: CHO cells, calcium phosphate transfection", "T2 sequence (P04150 1-777)": "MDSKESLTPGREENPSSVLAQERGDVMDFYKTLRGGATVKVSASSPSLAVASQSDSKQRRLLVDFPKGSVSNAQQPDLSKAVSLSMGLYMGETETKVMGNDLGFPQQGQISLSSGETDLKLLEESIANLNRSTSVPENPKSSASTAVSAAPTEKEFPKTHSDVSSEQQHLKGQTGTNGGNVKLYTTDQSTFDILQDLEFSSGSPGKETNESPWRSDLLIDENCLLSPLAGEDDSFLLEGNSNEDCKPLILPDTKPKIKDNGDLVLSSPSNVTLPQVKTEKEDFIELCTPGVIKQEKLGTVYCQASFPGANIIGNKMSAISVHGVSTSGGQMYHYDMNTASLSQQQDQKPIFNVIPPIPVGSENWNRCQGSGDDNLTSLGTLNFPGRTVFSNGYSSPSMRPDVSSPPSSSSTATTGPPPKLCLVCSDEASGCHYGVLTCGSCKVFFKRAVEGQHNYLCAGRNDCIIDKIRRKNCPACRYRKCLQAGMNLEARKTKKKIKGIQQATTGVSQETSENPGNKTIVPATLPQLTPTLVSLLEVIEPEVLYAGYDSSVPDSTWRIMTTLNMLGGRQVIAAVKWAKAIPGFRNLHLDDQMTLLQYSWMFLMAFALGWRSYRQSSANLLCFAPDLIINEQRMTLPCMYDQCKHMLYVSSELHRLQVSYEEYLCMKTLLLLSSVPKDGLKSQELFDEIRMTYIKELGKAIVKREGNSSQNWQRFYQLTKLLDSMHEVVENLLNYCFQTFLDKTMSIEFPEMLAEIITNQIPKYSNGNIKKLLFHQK", "test": "Cis-trans co-transfection assay (MMTV-LUC / pRShGR) in CHO cells", "assay_type": "cell-based", "conditions": "in presence of a GR activating concentration of corticosterone, FIG. 4", "description": "Chinese hamster ovary (CHO) cells were maintained and transfected in Dulbecco's modification of Eagle's medium (DMEM) supplemented with 15% foetal bovine serum, 100 IU/ml penicillin, 100 μg/ml streptomycin and […] L-glutamine (all Gibco BRL, Paisley, UK).\n24 hours prior to transfection CHO cells were plated at a density of 3×10^5/60 mm dish (Costar UK). Cells were transfected by the clacium phosphate method. Briefly, 5 μg of MMTV-LUC and 1 μg of pRShGR or 5 μg of pSV2 as a control for transfection efficiency were made up to a total of 10 μg/plate of DNA with pGEM3. 30 μl of 2.5M CaCl2 was diluted ten-fold with sterile water and 300 μl was added to the DNA. […]\nThe following day the cells were washed in PBS, lysed with 0.3 ml of lysis buffer (25 mM Tris-phosphate pH 7.8, 2 mM DTT, 1% Triton X-100 and 10% glycerol), scraped, centrifuged and the supernatant assayed in duplicate in a Berthold luminometer in a total volume of 250 μl, comprising 40 μl of cell extract, 5 μl of 30 mM ATP, 100 μl of assay buffer (20 mM tricine, […] (MgCO3)4.Mg(OH)2.%H2O, 2.67 mM MgSO4, Q1 mM EDTA, 33.3 mM DTT, 0.2 mg/ml coenzyme A) and 105 μl luciferin (Promega UK) injected to initiate the reaction. Light emission was measured over 10 seconds and relative light units/microgram of protein was calculated."}, "[4]": {"substrate": "C[C@]12CC[C@H](O)CC1=CC[C@@H]1[C@@H]2CC[C@]2(C)C(=O)CC[C@@H]12", "test": "purified protein, by the assay type", "conditions": "other: cell extracts, NADPH-dependent conversion"}, "[5]": {"conditions": "relative to DHEA and pregnenolone"}, "[6]": {"conditions": "cell extracts, NADPH-dependent conversion"}},
  "note": "Read-outs that look alike come from different tables or passages of the source.",
  "data": [
    {"molecule": "C[C@]12CC[C@H](O)C[C@@H]1CC[C@@H]1[C@@H]2CC[C@]2(C)[C@@H](O)CC[C@@H]12", "note": "[5α-androstane-3β, 17β-diol]", "values": [
      {"measurement": "activity of the expressed enzyme against the steroid as substrate", "setting": "Cyp7b [1]; [5]", "result": "less active"}
    ]},
    {"molecule": "CC(=O)[C@H]1CC[C@H]2[C@@H]3CC=C4C[C@@H](O)CC[C@]4(C)[C@H]3CC[C@]12C", "note": "[pregnenolone]", "values": [
      {"measurement": "Km", "setting": "Cyp7b [1]; [6]", "result": 3.6, "unit": "µM"},
      {"measurement": "Vmax", "setting": "Cyp7b [1]; [6]", "result": 34, "unit": "pmol/min/mg"},
      {"measurement": "conversion of labelled steroid by Cyp7b microsomes to a lower mobility form on TLC", "setting": "Cyp7b [2]", "result": "converted by the enzymes"},
      {"measurement": "release of 3H into the aqueous phase", "setting": "Cyp7b [3]", "result": "efficiently released"}
    ]},
    {"molecule": "C[C@]12CCC(=O)C=C1CC[C@@H]1[C@@H]2[C@@H](O)C[C@@]2(C)[C@H]1CC[C@]2(O)C(=O)CO", "note": "[cortisol]", "values": [
      {"measurement": "conversion of labelled steroid by Cyp7b microsomes to a lower mobility form on TLC", "setting": "Cyp7b [2]", "result": "at best inefficiently metabolised, if at all"}
    ]},
    {"molecule": "C[C@]12CC[C@H](O)CC1=CC[C@@H]1[C@@H]2CC[C@]2(C)C(=O)CC[C@@H]12", "note": "[DHEA, dehydroepiandrosterone]", "values": [
      {"measurement": "antagonism of corticosterone effect in activating GR-mediated transcription (fold induction of luciferase)", "setting": "GR", "result": "not"},
      {"measurement": "conversion of labelled steroid by Cyp7b microsomes to a lower mobility form on TLC", "setting": "Cyp7b [2]", "result": "converted"}
    ]},
    {"molecule": "C[C@]12C[C@H](O)[C@H]3[C@@H](CCC4=CC(=O)CC[C@@]43C)[C@@H]1CC[C@@H]2C(=O)CO", "note": "[corticosterone]", "values": [
      {"measurement": "activity of the expressed enzyme against the steroid as substrate", "setting": "Cyp7b [1]", "result": "low to undetectable activity"},
      {"measurement": "conversion of labelled steroid by Cyp7b microsomes to a lower mobility form on TLC", "setting": "Cyp7b [2]", "result": "at best inefficiently metabolised, if at all"}
    ]},
    {"molecule": "C[C@]12CC[C@H]3[C@@H](CCC4=CC(=O)CC[C@@]43C)[C@@H]1CC[C@@H]2O", "note": "[testosterone]", "values": [
      {"measurement": "activity of the expressed enzyme against the steroid as substrate", "setting": "Cyp7b [1]; [5]", "result": "low to undetectable activity"},
      {"measurement": "conversion of labelled steroid by Cyp7b microsomes to a lower mobility form on TLC", "setting": "Cyp7b [2]", "result": "at best inefficiently metabolised, if at all"}
    ]},
    {"molecule": "C[C@]12CC[C@@H]3c4ccc(O)cc4CC[C@H]3[C@@H]1CC[C@@H]2O", "note": "[estradiol, 17β-estradiol]", "values": [
      {"measurement": "activity of the expressed enzyme against the steroid as substrate", "setting": "Cyp7b [1]", "result": "less active"},
      {"measurement": "conversion of labelled steroid by Cyp7b microsomes to a lower mobility form on TLC", "setting": "Cyp7b [2]", "result": "converted by the enzymes"}
    ]},
    {"molecule": "C[C@]12CC[C@H](O)CC1=C[C@@H](O)[C@@H]1[C@@H]2CC[C@]2(C)C(=O)CC[C@@H]12", "note": "[7HD, 7α-hydroxydehydroepi-androsterone]", "values": [
      {"measurement": "antagonism of corticosterone effect in activating GR-mediated transcription (fold induction of luciferase)", "setting": "GR", "result": "acts as an antagonist"}
    ]},
    {"molecule": "C[C@H](CCCC(C)(C)O)[C@H]1CC[C@H]2[C@@H]3CC=C4C[C@@H](O)CC[C@]4(C)[C@H]3CC[C@]12C", "note": "[25-hydroxycholesterol]", "values": [
      {"measurement": "activity of the expressed enzyme against the steroid as substrate", "setting": "Cyp7b [1]", "result": "less active"},
      {"measurement": "conversion of labelled steroid by Cyp7b microsomes to a lower mobility form on TLC", "setting": "Cyp7b [2]", "result": "converted by the enzymes"}
    ]},
    {"molecule": "CC(=O)[C@H]1CC[C@H]2[C@@H]3CCC4=CC(=O)CC[C@]4(C)[C@H]3CC[C@]12C", "note": "[progesterone]", "values": [
      {"measurement": "conversion of labelled steroid by Cyp7b microsomes to a lower mobility form on TLC", "setting": "Cyp7b [2]", "result": "at best inefficiently metabolised, if at all"}
    ]},
    {"molecule": "Cyp7b (Mus musculus) (protein) MQGATTLDAASPGPLALLGLLFAATLLLSALFLLTRRTRRPREPPLIKGWLPYLGMALKFFKDPLTFLKTLQRQHGDTFTVFLVGKYITFVLNPFQYQYVTKNPKQLSFQKFSSRLSAKAFSVKKLLTDDDLNEDVHRAYLLLQGKPLDALLETMIQEVKELFESQLLKITDWNTERIFAFCGSLVFEITFATLYGKILAGNKKQIISELRDDFFKFDDMFPYLVSDIPIQLLRNEESMQKKIIKCLTSEKVAQMQGQSKIVQERQDLLKRYYRHDDPEIGAHHLGFLWASLANTIPAMFWAMYYILRHPEAMEALRDEIDSFLQSTGQKKGPGISVHFTREQLDSLVCLESTILEVLRLCSYSSIIREVQEDMNLSLESKSFSLRKGDFVALFPPLIHNDPEIFDAPKEFRFDRFIEDGKKKSTFFKGGKKLKTYVMPFGLGTSKCPGRYFAVNEMKLLLIMLLTYFDLEIIDRKPIGLNHSRMFLGIQHPDSAVSFRYKAKSWRS", "values": [
      {"measurement": "Km", "setting": "[4]", "result": 13.3, "unit": "µM"},
      {"measurement": "Vmax", "setting": "[4]", "result": 288, "unit": "pmol/min/mg"}
    ]}
  ]
}
